According to patent publication US7105679B2, “Heteroatom containing tetracyclic derivatives as selective estrogen receptor modulators” (priority 2001, dated 2006):
Where two headings read alike, the source gives them in different places.

How the values were obtained:
[1] = target: T1, human estrogen receptor α (Homo sapiens, UniProt P03372); assay: Estrogen Receptor α Flash Plate Assay (binding of radiolabeled estrogen)
T1 construct: purchased Panvera
T1 sequence (P03372 1-595): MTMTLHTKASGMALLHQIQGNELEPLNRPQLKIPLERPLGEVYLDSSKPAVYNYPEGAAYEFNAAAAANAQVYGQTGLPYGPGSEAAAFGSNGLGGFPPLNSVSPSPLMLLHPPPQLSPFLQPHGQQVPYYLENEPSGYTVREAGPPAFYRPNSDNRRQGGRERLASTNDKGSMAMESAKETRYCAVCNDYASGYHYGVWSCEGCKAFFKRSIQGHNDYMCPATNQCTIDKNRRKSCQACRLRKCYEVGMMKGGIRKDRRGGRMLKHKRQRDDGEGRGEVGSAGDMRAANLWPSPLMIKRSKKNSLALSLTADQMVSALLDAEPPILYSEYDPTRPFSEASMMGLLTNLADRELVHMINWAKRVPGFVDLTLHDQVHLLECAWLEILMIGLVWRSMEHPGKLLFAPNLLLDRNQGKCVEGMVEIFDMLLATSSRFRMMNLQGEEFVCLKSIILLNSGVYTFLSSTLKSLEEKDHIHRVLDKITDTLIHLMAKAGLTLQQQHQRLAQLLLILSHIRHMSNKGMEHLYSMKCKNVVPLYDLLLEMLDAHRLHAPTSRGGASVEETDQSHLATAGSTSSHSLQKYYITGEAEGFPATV
Protocol: This assay monitors binding of radiolabeled estrogen to the estrogen receptor. It is performed on a BioMek 2000 (Beckman). Plates are read in a scintillation counter (Packard TopCount), with decreased counts an indication of binding of a compound to the receptor.
The plate was sealed and incubated at 4° C. overnight.
On day two, each well was washed three times with 200 μL PBS, pH 7.2, at room temperature. To each well was then added 98 μL radiolabeled estrogen (0.5 nM, which equals 6 nCi for a 120 Ci/mmol batch, Amersham), diluted in ESB and 5 mM dithiothreitol (DTT). To individual wells were then added 2.5 μL test compound diluted in 30% (v/v) dimethyl sulfoxide/50 mM HEPES, pH 7.5. The wells were mixed three times by aspiration, the plate sealed and incubated at room temperature for one hour. The wells were then counted for 1 min in a TopCount scintillation counter (Packard).

MCF-7 cells = assay: MCF-7 Cell Proliferation Assay (14C-thymidine, agonist and antagonist mode); assay type: cell-based; conditions: number in brackets = number of tests, NA = no detected activity at test concentration
Protocol: This assay was run according to the procedure described by Welshons, et al., (Breast Cancer Res. Treat., 1987, 10(2), 169-75), with minor modification.
Briefly, MCF-7 cells (from Dr. C. Jordan, Northwestern University) were maintained in RPMI 1640 phenol red free medium (Gibco) in 10% FBS (Hyclone), supplemented with bovine insulin and non-essential amino acid (Sigma). The cells were initially treated with 4-hydoxyltamoxifen (10^−8 M) and let stand at 37° C. for 24 hours. Following this incubation with tamoxifen, the cells were treated with compounds at various concentrations.
Compounds to be tested in the agonist mode were added to the culture media at varying concentrations. Compounds to be treated in the antagonist mode were prepared similarly, and 10 nM 17β-estradiol was also added to the culture media. The cells were incubated for 24 hours at 37° C. Following this incubation, 0.1 μCi of ^14C-thymidine (56 mCi/mmol, Amersham) was added to the culture media and the cells were incubated for an additional 24 hours at 37° C. The cells were then washed twice with Hank's buffered salt solution (HBSS) (Gibco) and counted with a scintillation counter. The increase in the ^14C-thymidine in the compound treated cells relative to the vehicle control cells were reported as percent increase in cell proliferation.

Ishikawa cells = assay: Alkaline Phosphatase Assay in Human Endometrial Ishikawa Cells (agonist and antagonist mode); assay type: cell-based; conditions: number in brackets = number of tests, NA = no detected activity at test concentration; for IC50: antagonist mode with 10 nM 17β-estradiol; for EC50: agonist mode
Protocol: This assay was run according to the procedure described by Albert et a., Cancer Res, […], 50(11), 330-6-10, with minor modification.
Ishikawa cells (from ATCC) were maintained in DMEM/F12 (1:1) phenol red free medium (Gibco) supplemented with 10% calf serum (Hyclone). 24 hours prior to testing, the medium was changed to DMEM/F12 (1:1) phenol red free containing 2% calf serum.
Compounds to be tested in the agonist mode were added to the culture media at varying concentrations. Compounds to be treated in the antagonist mode were prepared similarly, and 10 nM 17β-estradiol was also added to the culture media. The cells were then incubated at 37° C. for 3 days. On the fourth day, the media was remove, 1 volume of 1× Dilution Buffer (Clontech) was added to the well followed by addition of 1 volume of Assay Buffer (Clontech). The cells were then incubated at room temperature for 5 minutes. […] The cells were incubated at room temperature for 10 minutes and then quantified on a luminometer. The increase of chemiluminescence over vehicle control was used to calculate the increase in alkaline phosphatase activity.

[2] = flash plate binding, 0.5 nM radiolabeled estrogen, number in brackets = No. of determinations, NA = no detected activity at test concentration, read-out: Estrogen Receptor α in μM (No.)
[3] = antagonist mode with 10 nM 17β-estradiol
[4] = Homo sapiens, MCF7, antagonist mode with 10 nM 17β-estradiol
[5] = Homo sapiens, MCF7, agonist mode

IC50 [1, 2] [µM]	IC50 (MCF-7 cells; [3]) [nM]	IC50 (Ishikawa cells) [nM]	SMILES	further results
0.014	≥ 10000	3000	OCCCOc1ccc(C2Oc3cc(O)ccc3C3=C2c2ccc(O)cc2OCC3)cc1 (racemic) [Compound 183]	
0.0089	> 10000	> 10000	COC(=O)COc1ccc(C2Oc3cc(O)ccc3C3=C2c2ccc(O)cc2OCC3)cc1 (racemic) [Compound 190]	
5.95	672	66	CC(C)(C)C(=O)Oc1ccc2c(c1)OC(c1ccc(OCCN3CCCCC3)cc1)C1=C2COc2cc(OC(=O)C(C)(C)C)ccc21 (single isomer, unassigned) [Compound 24]	EC50 (MCF-7 cells; agonist mode): > 10000 nM; EC50 (Ishikawa cells): > 10000 nM
1.2	1390	235	CC(C)(C)C(=O)Oc1ccc2c(c1)OC(c1ccc(OCCN3CCCCC3)cc1)C1=C2COc2cc(OC(=O)C(C)(C)C)ccc21 (single isomer, unassigned) [Compound 25]	EC50 (MCF-7 cells; agonist mode): > 10000 nM; EC50 (Ishikawa cells): > 10000 nM
> 1	845	10	CC(C)(C)C(=O)Oc1ccc2c(c1)OC(c1ccc(OCCN3CCCCC3)cc1)C1=C2COc2cc(O)ccc21 (single isomer, unassigned) [Compound 89, 2,2-Dimethyl-propionic acid 8-hydroxy-11S*-(+)-[4-(2-piperidin-1-yl-ethoxy)-phenyl]-5,11-dihydro-chromeno[4,3-c]chromen-2-yl ester]	
0.0066	1670	57	CC(C)(C)C(=O)Oc1ccc2c(c1)OCC1=C2C(c2ccc(OCCN3CCCCC3)cc2)Oc2cc(O)ccc21 (single isomer, unassigned) [Compound 90, 2,2-Dimethyl-propionic acid 8-hydroxy-5S*(+)-[4-(2-piperidin-1-yl-ethoxy)-phenyl]-5,11-dihydro-chromeno[4,3-c]chromen-2-yl ester]	
0.0039	182	130	Oc1ccc2c(c1)OC(c1ccc(OCCN3CCCCC3)cc1)C1=C2CCOc2cc(O)ccc21 (single isomer, unassigned) [Compound 99, 5R*-(+)-[4-(2-Piperidin-1-yl-ethoxy)-phenyl]-11,12-dihydro-5H-6,13-dioxa-benzo[3,4]cyclohepta[1,2-a]naphthalene-2,8-diol]	
			Oc1ccc2c(c1)OC(c1ccc(OCCN3CCCCC3)cc1)C1=C2CCOc2cc(O)ccc21 (single isomer, unassigned) [Compound 100, 5S*-(−)-[4-(2-Piperidin-1-yl-ethoxy)-phenyl]-11,12-dihydro-5H-6,13-dioxa-benzo[3,4]cyclohepta[1,2-a]naphthalene-2,8-diol]	IC50 [1]: 0.0026 µM; IC50 (MCF-7 cells; [4]): 75 nM; IC50 (Ishikawa cells; Homo sapiens): 19 nM
	4700	1620	Oc1ccc2c(c1)OC(c1ccc(OCCN3CCCCC3)cc1)C1=C2CCCOc2cc(O)ccc21 (single isomer, unassigned) [Compound 125]	
	245	78	Oc1ccc2c(c1)OC(c1ccc(OCCN3CCCCC3)cc1)C1=C2CCCOc2cc(O)ccc21 (single isomer, unassigned) [Compound 126]	
0.061	> 10000	4940	Oc1ccc2c(c1)OC(c1ccc(OCCN3CCCCC3)cc1)C1=C2CCOc2ccccc21 (single isomer, unassigned) [Compound 131]	
0.0048	1280	548	Oc1ccc2c(c1)OC(c1ccc(OCCN3CCCCC3)cc1)C1=C2CCOc2ccccc21 (single isomer, unassigned) [Compound 132]	
	2940	850	CN(C)CCOc1ccc(C2Oc3ccccc3C3=C2c2ccc(O)cc2OCC3)cc1 (single isomer, unassigned) [Compound 150]	
	2760	605	CN(C)CCOc1ccc(C2Oc3ccccc3C3=C2c2ccc(O)cc2OCC3)cc1 (single isomer, unassigned) [Compound 151]	
	687	405	CN(C)CCOc1ccc(C2Oc3cc(O)ccc3C3=C2c2ccc(O)cc2OCC3)cc1 (single isomer, unassigned) [Compound 163]	
	293	61	CN(C)CCOc1ccc(C2Oc3cc(O)ccc3C3=C2c2ccc(O)cc2OCC3)cc1 (single isomer, unassigned) [Compound 164]	
		128	Oc1ccc2c(c1)OC(c1ccc(OCCN3CCCCCC3)cc1)C1=C2CCOc2cc(O)ccc21 (single isomer, unassigned) [Compound 165]	
		41	Oc1ccc2c(c1)OC(c1ccc(OCCN3CCCCCC3)cc1)C1=C2CCOc2cc(O)ccc21 (single isomer, unassigned) [Compound 166]	
0.024			COc1ccc2c(c1)O[C@@H](c1ccc(OCCN3CCCCC3)cc1)C1=C2COc2cc(O)ccc21 (single isomer, unassigned) [Compound 176, 8-Methoxy-5S-[4-(2-piperidin-1-yl-ethoxy)-phenyl]-5,11-dihydro-chromeno[4,3-c]chromen-2-ol]	
	1870	9	CC(C)(C)C(=O)Oc1ccc2c(c1)OC(c1ccc(OCCN3CCCCC3)cc1)C1=C2CCOc2cc(OC(=O)C(C)(C)C)ccc21 (single isomer, unassigned) [Compound 179]	
	655	0.9	CC(C)(C)C(=O)Oc1ccc2c(c1)OC(c1ccc(OCCN3CCCCC3)cc1)C1=C2CCOc2cc(OC(=O)C(C)(C)C)ccc21 (single isomer, unassigned) [Compound 180]	
0.69			COC1Oc2cc(OC(=O)C(C)(C)C)ccc2C2=C1c1ccc(OC(=O)C(C)(C)C)cc1OC2c1ccc(OCCN2CCCCC2)cc1 (centres unmarked) [Compound 27]	
			CC(C)(C)C(=O)Oc1ccc2c(c1)OC(C)(c1ccc(OCCN3CCCC3)cc1)C1=C2COc2cc(OC(=O)C(C)(C)C)ccc21 (centres unmarked) [Compound 30, 2,2-Dimethyl-propionic acid, 8-(2,2-dimethyl-propionyloxy)-5-methyl-5-[4-(2-pyrrolidin-1-yl-ethoxy)-phenyl]-5,11-dihydro-chromeno[4,3-c]chromen-2-yl ester]	EC50 (MCF-7 cells; [5]): > 10000 nM; IC50 (MCF-7 cells; [4]): 2200 nM; EC50 (Ishikawa cells; Homo sapiens): > 10000 nM; IC50 (Ishikawa cells; Homo sapiens): 630 nM
			CC(C)(C)C(=O)Oc1ccc2c(c1)OC(C)(c1ccc(OCCN3CCCCCC3)cc1)C1=C2COc2cc(OC(=O)C(C)(C)C)ccc21 (centres unmarked) [Compound 33, 11-[4-(2-azepan-1-yl-ethoxy)-phenyl]-8-(2,2-dimethyl-propionyloxy)-11-methyl-5,11-dihydro-chromeno[4,3-c]chromen-2-yl ester]	EC50 (MCF-7 cells; [5]): > 10000 nM; IC50 (MCF-7 cells; [4]): 4800 nM; EC50 (Ishikawa cells; Homo sapiens): > 10000 nM; IC50 (Ishikawa cells; Homo sapiens): 1000 nM
